Measured values: PMC6838013, “Insight Into Mosquito GnRH-Related Neuropeptide Receptor Specificity Revealed Through Analysis of Naturally Occurring and Synthetic Analogs of This Neuropeptide Family” (Frontiers in Endocrinology, 2019)
Where “and” joins values, the source holds several entries; their conditions need not be identical. Equal values may be shown once. Non-standard residues stand in square brackets, D forms with d. Residues, ends and D or L forms follow the SMILES beside them. pGlu = O=C1CC[C@@H](C(=O)O)N1

Experiments:
[1] = test system: A. aegypti ACP receptor (AedaeACPR); assay: Calcium bioluminescence (aequorin) reporter assay of heterologously expressed ACPR; type: cell-based, Aedes aegypti
From the text: Therefore, to improve the bioluminescent signal linked to calcium mobilization following receptor activation, which was required in order to provide greater signal to noise ratio when testing ACP analogs with substitutions leading to intermediate levels of activation of the ACPR, we created a new mammalian expression construct using the dual promoter vector, pBudCE4.1. Specifically, we utilized a cloning strategy as reported previously ([41]) whereby the ACPR was inserted into the multiple cloning site (MCS) downstream of the CMV promoter in pBudCE4.1 using the sense primer SalI-KozakACPR, 5′-[…]-3′ and anti-sense primer XbaI-ACPR, 5′-[…]-3′, which directionally inserted the ACPR within the MCS downstream of the CMV promoter. Secondly, the murine homolog (Gα15) of the human promiscuous G protein, Gα16, which indiscriminately couples a wide variety of GPCRs to calcium signaling ([42]) was inserted into the MCS downstream of the EF1-α promoter in pBudCE4.1 using the sense primer NotI-Gα15, 5′-[…]-3′ and anti-sense primer BglII-Gα15, 5′-[…]-3′, which directionally inserted the murine Gα15 within the MCS downstream of the EF1-α promoter.
(§1) Functional activation of the AedaeACPR and AedaeAKHR-IA receptors was carried out following a previously described mammalian cell culture system involving a Chinese hamster ovary (CHO)-K1 cell line stably expressing aequorin ([43]). Cells were grown in DMEM:F12 media containing 10% heat-inactivated fetal bovine serum (Wisent, St. Bruno, QC), 200 μg/mL Geneticin, 1x antimycotic-antibiotic to approximately 90% confluency, and were transiently transfected using either Lipofectamine LTX with Plus Reagent or Lipofectamine 3000 transfection systems (Invitrogen, Burlington, ON) following manufacturer recommended DNA to transfection reagent ratios. Cells were detached from the culture flasks at 48 h post-transfection using 5 mM EDTA in Dulbecco's PBS. Cells were then prepared for the receptor functional assay following a procedure described previously ([27]). Stocks of peptide analogs of ACP and AKH were used for preparation of serial dilutions all of which were prepared in assay media (0.1% BSA in DMEM:F12) and loaded in quadruplicates into 96-well white luminescence plates (Greiner Bio-One, Germany). Cells were loaded with an automatic injector into each well of the plate containing different peptide analogs at various concentrations as well as negative control (assay media alone) and positive control wells (50 μM ATP). Immediately after injection of the cells, luminescence was measured for 20 s using a Synergy 2 Multi-Mode Microplate Reader (BioTek, Winooski, VT, USA). Calculations, including determination of EC50 values, were conducted in GraphPad Prism 7.02 (GraphPad Software, San Diego, USA) from dose-response curves from 3 to 4 independent biological replicates.

[2] = biological target: A. aegypti AKHR-IA receptor (AKHR-IA) (Aedes aegypti, UniProt A0A2P1A8S4); assay: Calcium bioluminescence (aequorin) reporter assay of heterologously expressed AKHR-IA; type: cell-based; conditions: for Fold-reduction in activity relative to Aedae-AKH: AKHR-IA in CHO-K1 aequorin cells, relative to native Aedae-AKH; for EC50: CHO-K1 cells stably expressing aequorin, transiently transfected with AKHR-IA (pcDNA3.1+), luminescence 20 s, 3 to 4 independent biological replicates, ND = no determined EC50 due to minimal or no detectable activity up to 10 μM
Experimental: For each construct, an overnight liquid culture of clonal recombinant bacteria containing the appropriate plasmid construct was grown in antibiotic-containing LB media and used to isolate midiprep DNA using the PureLink Midiprep kit (Life Technologies, Burlington, ON). Midiprep samples were then quantified and sent for sequencing as described previously ([26], [27]).
as §1

Sequence of A. aegypti AKHR-IA receptor (AKHR-IA) (A0A2P1A8S4 1-410): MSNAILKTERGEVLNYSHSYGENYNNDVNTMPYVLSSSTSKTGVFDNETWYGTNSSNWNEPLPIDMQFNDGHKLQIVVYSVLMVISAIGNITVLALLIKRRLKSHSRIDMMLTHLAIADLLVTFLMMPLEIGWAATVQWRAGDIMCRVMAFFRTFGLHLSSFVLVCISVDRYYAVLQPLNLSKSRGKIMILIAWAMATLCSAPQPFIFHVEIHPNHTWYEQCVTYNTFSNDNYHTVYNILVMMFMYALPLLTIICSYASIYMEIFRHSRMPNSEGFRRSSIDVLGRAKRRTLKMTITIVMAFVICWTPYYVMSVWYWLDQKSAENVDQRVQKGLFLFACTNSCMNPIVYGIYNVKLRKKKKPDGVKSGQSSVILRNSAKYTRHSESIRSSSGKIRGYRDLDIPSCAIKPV

CC(C)C[C@H](NC(=O)[C@@H]1CCC(=O)N1)C(=O)N[C@H](C(=O)N[C@@H](Cc1ccccc1)C(=O)N[C@H](C(=O)N1CCC[C@H]1C(=O)NCC(=O)N[C@@H](Cc1c[nH]c2ccccc12)C(=O)NCC(=O)N[C@@H](CCC(N)=O)C(N)=O)[C@@H](C)O)[C@@H](C)O [Bommo-AKH] ([pGlu]LTFTPGWGQ-NH2)
Activity on ACPR at the highest tested dose, in words ([1]; 10 μM, Figure 2, ANOVA and Tukey post-test): inactive
Fold-reduction in activity relative to AedaeACP ([1]; ACPR in CHO-K1 aequorin cells, relative to native Aedae-ACP): >1,000 fold
Fold-reduction in activity relative to Aedae-AKH [2]: 11 fold and 10.9 fold
EC50 [2]: 0.0236 µM

CC(C)C[C@H](NC(=O)[C@@H]1CCC(=O)N1)C(=O)N[C@@H](CC(N)=O)C(=O)N[C@@H](Cc1ccccc1)C(=O)N[C@H](C(=O)N1CCC[C@H]1C(=O)N[C@@H](CC(N)=O)C(=O)N[C@@H](Cc1c[nH]c2ccccc12)C(N)=O)[C@@H](C)O [Pyrap-AKH] ([pGlu]LNFTPNW-NH2)
Fold-reduction in activity relative to Aedae-AKH [2]: 337 fold and 336.7 fold
EC50 [2]: 0.727 µM

CC(C)C[C@H](NC(=O)[C@@H]1CCC(=O)N1)C(=O)N[C@H](C(=O)N[C@@H](Cc1ccccc1)C(=O)N[C@H](C(=O)N1CCC[C@H]1C(=O)NCC(=O)N[C@@H](Cc1c[nH]c2ccccc12)C(N)=O)[C@@H](C)O)[C@@H](C)O [Tabat-AKH] ([pGlu]LTFTPGW-NH2)
Fold-reduction in activity relative to Aedae-AKH [2]: 0.7 fold
EC50 [2]: 0.00152 µM
Improved efficacy on AKHR-IA relative to native mosquito AKH ([2]; relative to Aedae-AKH): ~ 30% and 30%

CC(C)[C@H](NC(=O)[C@@H]1CCC(=O)N1)C(=O)N[C@H](C(=O)N[C@@H](Cc1ccccc1)C(=O)N[C@H](C(=O)N1CCC[C@H]1C(=O)N[C@@H](CC(N)=O)C(=O)N[C@@H](Cc1c[nH]c2ccccc12)C(N)=O)[C@@H](C)O)[C@@H](C)O [V^2-PeramCAH-II] ([pGlu]VTFTPNW-NH2)
Fold-reduction in activity relative to Aedae-AKH [2]: 68.8 fold
Fold-reduction in activity relative to Aedae-AKH ([2]; listed as V^2-Peram-CAH-II): 69 fold
EC50 [2]: 0.148 µM

pQLTFTSS-amide [Lacol-AKH-7mer, C-terminally truncated synthetic analog based on an endogenous peptide from Laconobia oleracea]
AKHR-IA activation at the highest tested concentration ([2]; 10 μM, luminescence relative to maximal response with 10^−5M Aedae-AKH): ~ 7%
